As usually defined, the IC50 is the concentration that inhibits the measured activity by half. One may read the inhibition as the share of the control response that was lost under treatment.

8 molecules from ChEMBL document CHEMBL1146314, “Methotrexate gamma-hydroxamate derivatives as potential dual target antitumor drugs” (Bioorg Med Chem, 2007) can be followed below.

Assay [1] deals with T1, Matrix metalloproteinase-14 (Homo sapiens, UniProt P50281). The experiment in a line: Inhibition of human recombinant MMP14.
In assay [2] the test system is A549. As to the kind of experiment: Antiproliferative activity against A549 cells after 72 hrs by MTT assay. Format: functional, cell-based. As to conditions: Homo sapiens, A549, 72 h. (In general: Formazan colour is commonly taken as a measure of viable cells.)
Assay [3] concerns PPC-1. As to the kind of experiment: Antiproliferative activity against PPC1 cells after 72 hrs by MTT assay. It counts as functional, cell-based. As to conditions: Homo sapiens, PPC-1, 72 h.
Assay [4] is described as follows: Antiproliferative activity against Tsu-Pr1 cells after 72 hrs by MTT assay. It counts as functional, cell-based. As to conditions: Homo sapiens, TSU-Pr1, 72 h.
For assay [5], the system named is A549. As to the kind of experiment: Antiproliferative activity against A549 cells after 72 hrs in folate depleted media. It counts as functional, cell-based. As to conditions: Homo sapiens, A549, 72 h.
Assay [6] relates to PPC-1. The experiment in a line: Antiproliferative activity against PPC1 cells after 72 hrs in folate depleted media. As to conditions: Homo sapiens, PPC-1, 72 h. Format: functional, cell-based.
Assay [7] can be described thus: Antiproliferative activity against Tsu-Pr1 cells after 72 hrs in folate depleted media. It counts as functional, cell-based. As to conditions: Homo sapiens, TSU-Pr1, 72 h.
Assay [8] concerns the target T2, 72 kDa type IV collagenase (Homo sapiens, UniProt P08253). As to the kind of experiment: Inhibition of human recombinant MMP2 at 100 uM.
Target sequence in this assay (P08253 110-660 limits assumed): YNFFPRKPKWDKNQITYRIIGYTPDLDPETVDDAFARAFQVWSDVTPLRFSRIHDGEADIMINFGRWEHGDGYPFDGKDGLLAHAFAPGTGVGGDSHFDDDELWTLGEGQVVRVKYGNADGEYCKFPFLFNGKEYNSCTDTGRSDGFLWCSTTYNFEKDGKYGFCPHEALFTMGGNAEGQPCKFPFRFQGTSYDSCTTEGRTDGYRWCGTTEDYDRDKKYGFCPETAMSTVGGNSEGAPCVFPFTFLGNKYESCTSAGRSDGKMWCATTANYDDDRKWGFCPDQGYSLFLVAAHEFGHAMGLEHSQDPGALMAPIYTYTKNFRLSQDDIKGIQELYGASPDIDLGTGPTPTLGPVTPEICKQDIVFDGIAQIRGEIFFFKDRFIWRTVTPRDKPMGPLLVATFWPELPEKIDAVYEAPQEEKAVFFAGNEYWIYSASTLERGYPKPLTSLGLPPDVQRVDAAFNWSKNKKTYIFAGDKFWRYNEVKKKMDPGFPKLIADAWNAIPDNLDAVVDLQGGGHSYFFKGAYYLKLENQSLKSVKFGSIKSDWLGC
For assay [9], the target named is T3, Matrix metalloproteinase-9 (Homo sapiens, UniProt P14780). As to the kind of experiment: Inhibition of human recombinant MMP9 at 100 uM.
Assay [10] has as its target T4, Matrilysin (Homo sapiens) (UniProt P09237).
T4 sequence (whole entry): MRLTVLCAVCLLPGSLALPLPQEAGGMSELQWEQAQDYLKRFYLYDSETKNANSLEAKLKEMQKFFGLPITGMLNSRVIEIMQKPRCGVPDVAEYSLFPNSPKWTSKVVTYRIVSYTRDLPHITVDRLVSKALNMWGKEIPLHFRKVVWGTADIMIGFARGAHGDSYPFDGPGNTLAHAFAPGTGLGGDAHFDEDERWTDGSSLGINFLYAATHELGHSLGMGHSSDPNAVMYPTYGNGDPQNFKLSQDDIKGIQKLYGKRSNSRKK
The experiment in a line: Inhibition of human recombinant MMP7 at 100 uM.

Assay [11] addresses T1, Matrix metalloproteinase-14. As to the kind of experiment: Inhibition of human recombinant MMP14 at 100 uM.
Assay [12] concerns the target T5, Dihydrofolate reductase (Homo sapiens, UniProt P00374).
T5 sequence (P00374 whole entry): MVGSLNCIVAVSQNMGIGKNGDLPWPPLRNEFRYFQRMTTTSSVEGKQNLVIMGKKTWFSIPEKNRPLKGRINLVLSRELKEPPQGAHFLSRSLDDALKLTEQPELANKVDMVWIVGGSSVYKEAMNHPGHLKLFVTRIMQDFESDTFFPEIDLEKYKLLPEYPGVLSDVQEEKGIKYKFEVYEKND
Description: Inhibition of DHFR using folic acid substrate

Assay [13] deals with T5, Dihydrofolate reductase. The source holds these as a separate data set.
Description: Inhibition of DHFR using dihydrofolic acid substrate
The next assay addresses T6, Matrilysin (Homo sapiens, UniProt P09237).
T6 sequence (P09237 whole entry): T4 sequence (whole entry)
The experiment in a line: Inhibition of human recombinant MMP7.

For assay [14], the target named is T2, 72 kDa type IV collagenase. As to the kind of experiment: Inhibition of human recombinant MMP2.
Target sequence in this assay (P08253 whole entry): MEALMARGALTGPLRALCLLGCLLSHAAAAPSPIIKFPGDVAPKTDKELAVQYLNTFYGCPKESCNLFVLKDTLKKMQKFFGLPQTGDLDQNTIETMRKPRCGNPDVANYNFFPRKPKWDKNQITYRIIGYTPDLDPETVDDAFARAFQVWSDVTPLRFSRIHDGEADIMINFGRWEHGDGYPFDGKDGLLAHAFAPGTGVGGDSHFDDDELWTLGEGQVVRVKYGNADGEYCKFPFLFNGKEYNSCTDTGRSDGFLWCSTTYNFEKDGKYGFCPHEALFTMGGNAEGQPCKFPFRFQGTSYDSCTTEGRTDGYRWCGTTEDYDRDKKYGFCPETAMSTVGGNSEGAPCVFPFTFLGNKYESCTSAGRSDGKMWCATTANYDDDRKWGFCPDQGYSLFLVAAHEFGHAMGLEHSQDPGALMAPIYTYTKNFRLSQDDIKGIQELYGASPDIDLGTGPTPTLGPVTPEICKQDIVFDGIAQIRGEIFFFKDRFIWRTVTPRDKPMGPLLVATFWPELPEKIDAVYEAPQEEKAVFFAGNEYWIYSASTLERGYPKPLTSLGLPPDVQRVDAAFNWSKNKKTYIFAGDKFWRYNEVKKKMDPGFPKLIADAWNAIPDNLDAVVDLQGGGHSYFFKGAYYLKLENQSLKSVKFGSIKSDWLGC
The target in assay [15] is T2, 72 kDa type IV collagenase. As to the kind of experiment: Ratio of IC50 of drug to CGS 27023A for human recombinant MMP2.
Target sequence in this assay (P08253 110-660 limits assumed): as the sequence (P08253 110-660 limits assumed) above
Assay [16] has as its target T3, Matrix metalloproteinase-9. The experiment in a line: Inhibition of human recombinant MMP9.
Assay [17] has as its target T4, Matrilysin (Homo sapiens). As to the kind of experiment: Ratio of IC50 of drug to CGS 27023A for human recombinant MMP7.
The target in assay [18] is T3, Matrix metalloproteinase-9. As to the kind of experiment: Ratio of IC50 of drug to CGS 27023A for human recombinant MMP9.
Assay [19] concerns the target T1, Matrix metalloproteinase-14. As to the kind of experiment: Ratio of IC50 of drug to CGS 27023A for human recombinant MMP14.

Molecules are shown by their SMILES.

T3 sequence (P14780 whole entry): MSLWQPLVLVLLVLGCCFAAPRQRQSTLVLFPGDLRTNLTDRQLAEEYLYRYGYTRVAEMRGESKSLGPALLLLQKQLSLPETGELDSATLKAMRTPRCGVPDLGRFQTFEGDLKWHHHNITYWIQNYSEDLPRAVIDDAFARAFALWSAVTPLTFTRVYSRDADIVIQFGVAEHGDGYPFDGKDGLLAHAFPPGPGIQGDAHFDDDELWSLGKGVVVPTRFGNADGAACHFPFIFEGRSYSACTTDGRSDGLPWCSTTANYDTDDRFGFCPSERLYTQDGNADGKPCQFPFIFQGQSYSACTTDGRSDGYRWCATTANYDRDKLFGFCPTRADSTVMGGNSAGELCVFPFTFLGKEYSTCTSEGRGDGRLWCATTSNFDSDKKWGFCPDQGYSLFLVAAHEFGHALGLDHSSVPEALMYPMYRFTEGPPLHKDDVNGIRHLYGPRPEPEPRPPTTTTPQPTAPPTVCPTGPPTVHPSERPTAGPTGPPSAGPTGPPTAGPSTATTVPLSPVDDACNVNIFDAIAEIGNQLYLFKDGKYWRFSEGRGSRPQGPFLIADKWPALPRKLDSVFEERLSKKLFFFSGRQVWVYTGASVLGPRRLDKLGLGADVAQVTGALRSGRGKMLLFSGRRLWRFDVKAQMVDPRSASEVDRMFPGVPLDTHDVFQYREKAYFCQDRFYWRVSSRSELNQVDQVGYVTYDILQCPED

Consider `COc1ccc(S(=O)(=O)N(Cc2cccnc2)[C@@H](C(=O)NO)C(C)C)cc1` [CGS-27023A], for which, in assay [1], the IC50 came out at 23 nM.

For the molecule `CN(Cc1cnc2nc(N)nc(N)c2n1)c1ccc(C(=O)N[C@@H](CCC(=O)N2CCC[C@H]2C(=O)NO)C(=O)O)cc1`, the IC50 turned out to be 7500 nM with A549 [2]; 1800 nM in the assay with PPC-1 [3]; 2300 nM in [4]; 500 nM with A549 [5]; 200 nM in the assay on PPC-1 [6]; 100 nM in assay [7]. The IC50 was 130 nM against Dihydrofolate reductase [12] and 120 nM against Dihydrofolate reductase [13]. The inhibition in [8] was 56%; in assay [9], 61%; in assay [10], 43%; in [11], 47%.

For the molecule `NC1=NC(=O)C2N=C(CNc3ccc(C(=O)N[C@@H](CCC(=O)N4CCC[C@H]4C(=O)NO)C(=O)O)cc3)C=NC2=N1` (stereo not given in full), the IC50 in the assay on A549 [2] came out at 130000 nM; in the assay on PPC-1 [3], 120000 nM; in assay [4] it was 80000 nM. Moreover, the inhibition in [8] was determined as 58%; in assay [10] it was 54%.

For `Nc1nc2ncc(CNc3ccc(C(=O)N[C@@H](CCC(=O)NO)C(=O)O)cc3)nc2c(=O)[nH]1`, the figures for the IC50 (in the assay with A549 [2]; in the assay on PPC-1 [3]; in assay [4]) were 100000 nM, 80000 nM and 120000 nM, respectively. Moreover, the inhibition in assay [8] turned out to be 66%; in assay [9], 55%; in [10], 53%; in assay [11], 42%.

As for `CN(Cc1cnc2nc(N)nc(N)c2n1)c1ccc(C(=O)N[C@@H](CCC(=O)NO)C(=O)O)cc1`, the IC50 is 100000 nM on Matrilysin; 6000 nM in the assay with A549 [2]; 2000 nM in the assay on PPC-1 [3]; 2000 nM in assay [4]; 100 nM with A549 [5]; 50 nM with PPC-1 [6]. The IC50 was 10 nM in assay [7], 170 nM at Dihydrofolate reductase [12] and 70 nM against Dihydrofolate reductase [13]. Also, the inhibition turned out to be 67% in [8], 61% in assay [9] and 48% in assay [11].

With `Nc1nc2ncc(CNc3ccc(C(=O)N[C@@H](CCC(=O)N[C@@H](Cc4ccccc4)C(=O)NO)C(=O)O)cc3)nc2c(=O)[nH]1`, the IC50 in assay [14] was 65000 nM; in [16], 22000 nM; on Matrilysin it was 15000 nM; in [1], 80000 nM; in the assay on A549 [2], 110000 nM; in the assay with PPC-1 [3], 70000 nM. This molecule also returned an IC50 in [4] of 150000 nM. The Ratio IC50 was determined as 2710 in [15], 150 in [17], 4400 in assay [18] and 3480 in assay [19].

Consider `CN(Cc1cnc2nc(N)nc(N)c2n1)c1ccc(C(=O)N[C@@H](CCC(=O)N[C@@H](Cc2ccccc2)C(=O)NO)C(=O)O)cc1`, for which the IC50 in [14] stood at 60000 nM; in [16] it was 15000 nM; on Matrilysin it was 44000 nM; in assay [1] it was 70000 nM; in the assay on A549 [2], 6500 nM; with PPC-1 [3] it was 4800 nM. Besides, the IC50 worked out at 2000 nM in assay [4]; 500 nM in the assay on A549 [5]; 500 nM in the assay on PPC-1 [6]; 120 nM in assay [7]; 250 nM against Dihydrofolate reductase [12]; 170 nM against Dihydrofolate reductase [13]. The Ratio IC50 stood at 2500 in assay [15], 440 in assay [17], 3000 in assay [18] and 3040 in assay [19].

As for `CN(Cc1cnc2nc(N)nc(N)c2n1)c1ccc(C(=O)N[C@@H](CCC(=O)O)C(=O)O)cc1` [METHOTREXATE], the IC50 in the assay on A549 [2] was 100 nM; with PPC-1 [3], 100 nM; in [4] it was 100 nM; in the assay with A549 [5], 20 nM; in the assay on PPC-1 [6], 10 nM; in assay [7] it was 8 nM.
